Data on 16 compounds can be found in patent US4559338A, “Soluble quinazolino-1,4-benzodiazepin-5,13-dione derivatives” (Merck & Co., Inc., priority 1985, dated 1985).

≈ marks a conversion by molar mass, not a printed value. Structures can show the parent of a compound that is named as a salt. Where two headings read alike, the source gives them in different places. Where a SMILES comes first, the peptide text is derived from it. [ ]: non-standard residue; d: D form. The star is where a group is joined. sY = N[C@@H](Cc1ccc(OS(=O)(=O)O)cc1)C(=O)O; Cbz = O=C(OCc1ccccc1)*; Boc = CC(C)(C)OC(=O)*

The target of series [1] is T1, CCK receptor (pancreas) (Rattus norvegicus, UniProt P30551).
T1 construct: The whole pancreas of a male Sprague-Dawley rat (200-350 g); from tissue; host or cells: whole pancreas of male Sprague-Dawley rat, washed membrane homogenate
T1 sequence (P30551 1-444): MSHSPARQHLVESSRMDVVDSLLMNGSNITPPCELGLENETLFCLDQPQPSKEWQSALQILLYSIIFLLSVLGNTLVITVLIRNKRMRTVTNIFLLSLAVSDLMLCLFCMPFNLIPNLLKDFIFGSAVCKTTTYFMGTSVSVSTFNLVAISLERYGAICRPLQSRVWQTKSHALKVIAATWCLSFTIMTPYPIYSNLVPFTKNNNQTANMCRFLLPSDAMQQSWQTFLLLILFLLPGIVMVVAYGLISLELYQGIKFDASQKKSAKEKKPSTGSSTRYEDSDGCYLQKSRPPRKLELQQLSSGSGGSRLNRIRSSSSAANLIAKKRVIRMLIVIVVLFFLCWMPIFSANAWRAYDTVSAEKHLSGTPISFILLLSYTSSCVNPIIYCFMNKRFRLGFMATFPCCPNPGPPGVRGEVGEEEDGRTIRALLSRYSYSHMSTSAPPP
Nature of the series: CCK receptor binding (pancreas) method, 125I-CCK. Set-up: species or system rat (male Sprague-Dawley). As to conditions: for effect on the 125I-CCK receptor binding assay (in words): additional protease inhibitors in assay buffer; for IC50: I-CCK-8 Pancreas assay, read-out: Anti-CCK Activity IC50. The protocol: Screening of the novel compounds according to the present invention to determine biological activity and obtain an IC50 value for them, in order to identify significant CCK-antagonism, may be accomplished using an ^125 I-CCK receptor binding assay and in vitro isolated tissue preparations. These tests involve the following:
CCK receptor binding (pancreas) method
[…] (J. Biol. Chem., 254, 9349-9351, 1979). Receptor binding is performed according to Innis and Snyder (Proc. Natl. Acad. Sci., 77, 6917-6921, 1980), with the minor modification of adding the additional protease inhibitors, phenyl-methane sulfonyl fluoride and o-phenanthroline, which have no effect on the ^125 I-CCK receptor binding assay.
The whole pancreas of a male Sprague-Dawley rat (200-350 g), which has been sacrificed by decapitation, is dissected free of fat tissue and homogenized in 20 volumes of ice-cold 50 mM Tris HCl (pH 7.7 at 25° C.) with a Brinkman Polytron PT-10. The homogenates are centrifuged at 48,000 g for 10 minutes, then the resulting pellets are resuspended in Tris Buffer, centrifuged as above, and resuspended in 200 volumes of binding assay buffer (50 mM Tris HCl, pH 7.7 at 25° C., 5 mM dithiothreitol, 0.1 mM bacitracin, 1.2 mM phenylmethane sulfonyl fluoride and 0.5 mM o-phenanthroline).
For the binding assay, 25 μl of buffer (for total binding), or unlabeled CCK-8 sulfate sufficient to give a final concentration of 1 μM of CCK-8 (for nonspecific binding), or the compounds of the formula of the compounds according to the instant invention ([…]), are added to 450 μl of the membrane suspensions in microfuge tubes. All assays are run in duplicate or triplicate, and the reaction mixtures are incubated at 37° C. for 30 minutes and centrifuged in a Beckman Microfuge (4 minutes) immediately after adding 1 ml of ice-cold incubation buffer. The supernatant is aspirated and discarded, and the pellets are counted with a Beckman Gamma 5000.
The compounds of Examples 1-9 were tested for solubility in deionized water and pH 7.4 phosphate buffer and as CCK-antagonists (pancreas assay) with the following results: […]

The subject of series [2] is CCK receptor. As to conditions: cited from earlier work.
A short description of series [3]: Solubility in deionized water and pH 7.4 phosphate buffer. Type of series: physicochemical.
The conditions of series [4]: compound of the earlier filing U.S. Pat. No. 4,530,790; cited from earlier work.
Series [5] can be described thus: Solubility / stability and absorption stated in the text (no method described). The class given is physicochemical. As to conditions: white powder.
The mark [6] stands for this setting: phosphate buffer, pH 7.4, aqueous buffer, pH 7.4 Buffer, read-out: Solubility.
Setting [7] is: deionized water, water, H2O (deionized water), read-out: Solubility.

Regarding `O=S(=O)(F)Cc1ccccc1` [phenyl-methane sulfonyl fluoride, reference compound], the “effect on the 125I-CCK receptor binding assay (in words)” value in series [1] was “no effect”.
As for `CSCC[C@H](NC(=O)OC(C)(C)C)C(=O)N[C@@H](CC(=O)O)C(=O)N[C@@H](Cc1ccccc1)C(N)=O` [Boc-Met-Asp-Phe-NH2] (Boc-Met-Asp-Phe-NH2), the “CCK-antagonist activity (in words)” value in series [2] is “can function as CCK-antagonists”.
For the compound `CC(C)C[C@H]1C(=O)N2c3ccccc3[C@@](O)(C[C@@H]3NC(=O)c4ccccc4N4C(=O)c5ccccc5NC34)[C@H]2N1CC(=O)O` (stereo partly drawn) [Example 8, 7β-[(1-carboxymethyl-2,3,9,9Aα-tetrahydro-9α-hydroxy-2-(2-methylpropyl)-3-oxo-1H-imidazo(1,2-A)indol-9-yl)methyl]-6,7,7A-8-tetrahydro-5H,13H-quinazolino(3,2-A)-1,4-benzodiazepin-5H,13-dione sodium salt solvate], the IC50 in series [1] amounted to 0.8 µM. This compound displayed a Solubility in series [3] (H2O (deionized water)) above 5200 µg/mL.
With `CCCC(=O)Nc1nc2c(ncn2[C@@H]2O[C@@H]3COP(=O)(O)O[C@H]3[C@H]2OC(=O)CCC)c(=O)[nH]1` [dibutyryl cyclic GMP], in series [2] (derivatives of cyclic nucleotides, structure-function studies), the “relative CCK antagonist potency within cyclic nucleotide class (in words)” value is “the most potent”.
In the case of `CSCC[C@H](NC(=O)[C@H](Cc1ccc(OS(=O)(=O)O)cc1)NC(=O)OCc1ccccc1)C(=O)NCC(=O)N[C@@H](Cc1c[nH]c2ccccc12)C(=O)N[C@@H](CCSC)C(=O)N[C@@H](CC(=O)O)C(N)=O` [Cbz-Tyr(SO3 H)-Met-Gly-Trp-Met-Asp-NH2] (Cbz-[sY]MGWMD-NH2), the “CCK-antagonist activity (in words)” value in series [2] is reported as “can function as CCK-antagonists”.
On to `CC(C)C[C@H]1C(=O)N2c3ccccc3[C@@](O)(C[C@@H]3NC(=O)c4ccccc4N4C(=O)c5ccccc5NC34)[C@H]2N1C(=O)CCC(=O)O` (stereo partly drawn) [Example 4, 9-(5,6,7,7A,8,13-hexahydro-5,13-dioxoquinazolino(3,2-A)-1,4-benzodiazepin-7-yl)-2,3,9,9A-tetrahydro-9α-hydroxy-2-(2-methylpropyl)-γ,3-dioxo-1H-imidazo(1,2-A)indole-1-butanoic acid dihydrate], for which the IC50 in series [1] came to 6.1 µM. For the same compound, the Solubility in series [3] (H2O (deionized water), dihydrate) turned out to be 540 µg/mL; in series [3] (setting [6]) it was 10800 µg/mL.
`CC(C)C[C@H]1C(=O)N2c3ccccc3[C@@](O)(C[C@@H]3NC(=O)c4ccccc4-n4c3nc3ccccc3c4=O)[C@H]2N1C(=O)[C@@H](N)CCCNC(=O)OCc1ccccc1` [Example 6, 1,2,9,9Aα-tetrahydro-9α-hydroxy-1-[2-amino-5-((phenylmethoxy)carbonyl)aminopentanoyl]-2-(2-methylpropyl)-9-[(5,6,7,13-tetrahydro-5,13-dioxoquinazolino(3,2-A)-1,4-benzodiazepin-7-yl)methyl]-3H-imidazo(1,2-A)indol-3-one hydrochloride]: in series [1], the 50% inhibitory concentration (IC50) amounted to 1.8 µM. Besides, in series [3] (setting [7]), the Solubility was determined as 240 µg/mL.
Turning to `CC(C)C[C@@H]1N[C@H]2N(C1=O)c1ccccc1[C@@]2(O)C[C@@H]1NC(=O)c2ccccc2-n2c1nc1ccccc1c2=O` [formula (I), 7β-((2,3,9,9Aα-tetrahydro-9α-hydroxy-2-(2-methylpropyl)-3-oxo-1H-imidazo-(1,2-A)-indol-9-yl)-methyl)quinazolino(3,2-A)(1,4) benzodiazepin-5,13-(6H,7H)dione], in series [4], the “solubility in water (in words)” value was “only slightly soluble in water”. In series [2], the “CCK-antagonist activity (in words)” value is on record as “has been shown to be a CCK-antagonist”.
For `CC(C)CC1C(=O)N2c3ccccc3C(O)(C3NC(=O)c4ccccc4-n4c3nc3ccccc3c4=O)C2N1C(=O)CCC(=O)[O-].[Na+]` (stereo not drawn) [Example 2, sodium 2,3,9,9Aα-tetrahydro-9α-hydroxy-2-(2-methylpropyl)-γ,3-dioxo-9-(5,6,7,13-tetrahydro-5,13-dioxoquinazolino(3,2-A)-1,4-benzodiazepin-7-yl)-1H-imidazo(1,2-A)indole-1-butanoate], the IC50 in series [1] is 27 µM. The same compound came in with a Solubility in series [3] (H2O (deionized water)) of 72000 µg/mL.
Consider `CC(C)C[C@H]1C(=O)N2c3ccccc3[C@@](O)(C[C@@H]3NC(=O)c4ccccc4N4C(=O)c5ccccc5NC34)[C@H]2N1CC(=O)O` (stereo partly drawn) [Example 7, 7β-[(1-carboxymethyl-2,3,9,9Aα-tetrahydro-9α-hydroxy-2-(2-methylpropyl)-3-oxo-1H-imidazo(1,2-A)indol-9-yl)methyl]-6,7,7A-8-tetrahydro-5H,13H-quinazolino(3,2-A)-1,4-benzodiazepin-5H,13-dione solvate], for which, in series [1], the IC50 came out at 1.4 µM. Further, the Solubility in series [3] (H2O (deionized water)) is 10500 µg/mL.
`CSCC[C@H](N)C(=O)N[C@@H](CC(=O)O)C(=O)N[C@@H](Cc1ccccc1)C(N)=O` [Met-Asp-Phe-NH2] (H-Met-Asp-Phe-NH2): the “CCK-antagonist activity (in words)” value in series [2] was “can function as CCK-antagonists”.
With `CC(C)C[C@H]1C(=O)N2c3ccccc3[C@@](O)(C[C@@H]3NC(=O)c4ccccc4-n4c3nc3ccccc3c4=O)[C@H]2N1C(=O)[C@@H](N)CCCCN` [Example 3, dihydrochloride], in series [1], the IC50 came out at 3.8 µM. Further, in series [5], the “water-soluble (in words)” value is “water-soluble”.
In the case of `CC(C)C[C@H]1C(=O)N2c3ccccc3[C@@](O)(C[C@@H]3NC(=O)c4ccccc4-n4c3nc3ccccc3c4=O)[C@H]2N1C(=O)CCC(=O)O` [Example 1, 2,3,9,9Aα-tetrahydro-9α-hydroxy-2-(2-methylpropyl)-γ,3-dioxo-9-(5,6,7,13-tetrahydro-5,13-dioxoquinazolino(3,2-A)-1,4-benzodiazepin-7-yl)-1H-imidazo(1,2-A)indole-1-butanoic acid], the 50% inhibitory concentration (IC50) in series [1] is 230 µM. Besides, the Solubility in series [3] (setting [7]) amounted to 280 µg/mL (≈ 0.44 mM); in series [3] (setting [6]), 9500 µg/mL (≈ 14.9 mM).
Turning to `CC(C)C[C@H]1C(=O)N2c3ccccc3[C@@](O)(C[C@@H]3NC(=O)c4ccccc4N4C(=O)c5ccccc5NC34)[C@H]2N1C(=O)CCC(=O)O` (stereo partly drawn) [Example 5, sodium 9-(5,6,7,7A,8,13-hexahydro-5,13-dioxoquinazolino(3,2-A)-1,4-benzodiazepin-7-yl)2,3,9,9A-tetrahydro-9α-hydroxy-2-(2-methylpropyl)-γ,3-dioxo-1H-imidazo(1,2-A)indole-1-butanoate trihydrate], the half-maximal inhibitory concentration (IC50) in series [1] worked out at 1.7 µM. This compound also showed a Solubility in series [3] (H2O (deionized water), trihydrate) above 8900 µg/mL.
Turning to `CC(C)C[C@@H]1N[C@H]2N(C1=O)c1ccccc1[C@]2(C[C@@H]1NC(=O)c2ccccc2-n2c1nc1ccccc1c2=O)OC(=O)CCC(=O)O` [Example 9, 7β-[(2,3,9,9Aα-tetrahydro-9α-(3-carboxy-1-oxopropoxy)-2-(2-methylpropyl)-3-oxo-1H-imidazo(1,2-A)indol-9-yl)methyl]quinazolino(3,2-A)-1,4-benzodiazepin-5,13-(6H,7H)-dione monohydrate], the half-maximal inhibitory concentration (IC50) in series [1] worked out at 85 µM.
For `c1cnc2c(c1)ccc1cccnc12` [o-phenanthroline, reference compound], the “effect on the 125I-CCK receptor binding assay (in words)” value in series [1] is “no effect”.
